Results on two compounds are retold here after patent US20130015204A1, “SINGLE-USE CONTAINERS AND USES THEREOF” (priority 2009, published 2013).

Data set [1] is described as follows: Long term storage stability studies: HPLC, solutions stored at RT and 4° C. for up to 4 months. Particulars: for Vitamin degradation, Storage 4° C. / Vitamin degradation, Storage RT: greatest percentage change over the 4 month testing period, † non-significant, * significant, ‡ transient at 2 weeks; for Long term storage stability of vitamin solution: stored at RT or 4° C., 4 month period. On the procedure: Heat was applied by different methods, including placing the solution in a test tube in a bath of hot water (80° C. or 100° C.) for 15 minutes, or by mixing a concentrated solution with hot water or hot coffee (80° C. or 100° C. for both) for an equivalent time. Long term stability studies were carried out by storing individual vitamin solutions at room temperature and at 4° C. for up to 4 months and sampling these solutions at various intervals. Degradation was assessed by the change in peak area of the HPLC peak specific to each particular compound.
Vitamin solutions were prepared as for the Heat Stability Studies.
Replicate aliquots of these solutions were placed in four 15 mL Falcon tubes. Two of these tubes were stored on a shelf at room temperature (RT) in the laboratory and two in the cold room (4° C.).
At 0, 0.5, 1, 1.5, 2, 3.5, and 4 months, samples were taken from each vial for
HPLC analysis. The high concentration vitamin samples (vitamins BI, B3, B5, and B6) were diluted to 1:250 with Milli-Q water before injection and the low concentration vitamin samples (vitamins B2, B7, B9, and B12) were injected undiluted.
Samples from each of the duplicate solutions described above were injected onto the HPLC in duplicate. HPLC conditions were as described above.
Duplicate injections of the two samples were made and the mean of the four results was reported.
(§1) The percentage change in individual vitamin concentrations relative to the control sample was calculated as: 100×(Atest−Acontrol)/Acontrol, where Atest and Acontrol are peak area ratios (analyte/intemal standard) for the test and control solutions respectively.
For the heat stability studies, statistical analysis was performed by Students t-test. For the storage stability studies, statistical analysis was performed by univariate ANOVA (General Linear Model). All statistical analyses were performed with SPSS 16.

Data set [2] can be described thus: Heat stability studies: HPLC peak area change after heating, hot water or hot coffee. In kind it is physicochemical. Particulars: for Effect of heating solutions on vitamin concentration: heating to either 80° C. or 100° C. for 15 minutes; for % Deviation: low concentration vitamin solution, undiluted, vs control. On the procedure:
Vitamins were divided into two groups, depending on their solubility. “High concentration” vitamins were sufficiently soluble to be detected by the. HPLC analysis after 1/250 dilution. “Low concentration” vitamins were not sufficiently soluble and could not be detected after 1/250 dilution and therefore a different procedure was adopted for these compounds as described below.
High concentration vitamin (B1, B3, B5, B6) solutions
Solutions were prepared immediately before use in duplicate, using four different methods, described below: a. Dilute 1 mL of each standard solution to 250 mL with Milli-Q water at room temperature (control sample) […]
b. […] Then take a 1 mL sample from each tube and dilute to 250 mL with Milli-Q water at room temperature. c. Dilute 1 mL of each solution to 250 mL with hot water (80° C. or 100° C.). Leave for 15 minutes, then take a sample and cool immediately to room temperature. d. Dilute 1 mL of each solution to 250 mL with hot coffee (80° C. or 100° C.). Leave for 15 minutes, then take a sample and cool immediately to room temperature.
Low Concentration Vitamin (B2, B7, B9, B12) Solutions
Standard solutions were freshly prepared with Milli-Q water as described above. The test solutions below were then immediately prepared in duplicate: a. Use undiluted (control sample)
HPLC conditions were as described above.
as §1
All statistical analyses were performed with SPSS 16.

For data set [3] the following is noted: water; cited from earlier work.

Entries after “also recorded” stand apart in the source; their conditions may differ.

On to `Nc1nc2ncc(CNc3ccc(C(=O)N[C@@H](CCC(=O)O)C(=O)O)cc3)nc2c(=O)[nH]1` [Vitamin B9, folic acid], for which, in data set [1] (aqueous solution stored at 4° C., up to 4 months, — = no significant fall), the “Time to achieve significant falls at 4° C.” value worked out at 2 weeks. Further, the “Time to achieve significant falls at RT” value in data set [1] (aqueous solution stored at RT, up to 4 months, — = no significant fall) amounted to 2 weeks. In addition, in data set [1], the “Vitamin degradation, Storage 4° C.” value is reported as −13.7% *; the “Vitamin degradation, Storage RT” value was −100.0% *; the “Long term storage stability of vitamin solution” value is “varying levels of degradation; also recorded: Significant degradation”. The “Comment: At 4° C., significant change only at” value in data set [1] (storage at 4° C.) is listed as 2 weeks. Also, the “Further fall in levels at 1 month” value in data set [1] (storage at 4° C., 1 month, beyond the fall at 2 weeks) was found to be 5.7%. Moreover, the “Degradation after 2 weeks at 4° C.” value in data set [1] (storage at 4° C., 2 weeks) is 8.0%. In addition, in data set [1] (storage at 4° C., 4 months), the “Maximum degradation on storage at 4° C.” value came out at 13.7%. Moreover, in data set [1] (storage at RT and 4° C. for up to 4 months), the “Comment (long term storage stability)” value is reported as “At RT, undetectable”. Moreover, the “Degradation after 2 weeks at RT” value in data set [1] (storage at RT, 2 weeks) came to 10.0%. In addition, in data set [1] (storage at RT, sampling times from 1 month to 4 months), the “Level on storage at RT after the 2 week sample” value was “undetectable; also recorded: complete elimination”. Further, the “Effect of heating solutions on vitamin concentration” value in data set [2] was “Statistically significant reductions”. In data set [2] (heated to 80° C., 15 minutes), the “% Deviation” value was −1.92%. Besides, the “% Deviation” value in data set [2] (heated to 100° C., 15 minutes) was −2.26%. Moreover, the Aq. solubility in data set [3] is 1.6 µg/mL.

As to cyanocobalamin [Vitamin B12], in data set [1], the “Vitamin degradation, Storage 4° C.” value was “† −1.4%”; the “Vitamin degradation, Storage RT” value was “† −1.2%”; the “Long term storage stability of vitamin solution” value is given as “stable; also recorded: no statistically significant degradation”. Besides, the “Effect of heating solutions on vitamin concentration” value in data set [2] was “not significantly affected”. In data set [2] (heated to 80° C., 15 minutes), the “% Deviation” value is −0.14%. The “% Deviation” value in data set [2] (heated to 100° C., 15 minutes) was −0.18%. In addition, the “Vitamin degradation, Heat 80° C.” value in data set [2] (summary, solution heated 80° C., 15 minutes) is reported as “†† (non-significant reductions in vitamin concentrations of <2% in response to heat treatment)”. The “Vitamin degradation, Heat 100° C.” value in data set [2] (summary, solution heated 100° C., 15 minutes) was “†† (non-significant reductions in vitamin concentrations of <2% in response to heat treatment)”. Also, in data set [3], the Aq. solubility was 12.5 µg/mL.
